Reference: patent publication US9072762B2, “Natural composition to decrease effects of a high fat diet” (Board of Supervisors of Louisiana State University And …, priority 2009, dated 2015)

Key:
[1] = type: in vivo, rat; conditions: for Oral bioavailability / absorption: rat, in vivo
Procedure: Thirty-two normal male SD rats were used in the experiment. Prior to treatment, all rats were fasted overnight. The treated group (n=24) received the RUS extract at a dose of 1 g/kg of body weight (0.1% w/w), and the control group (n=8) received the same volume of water via daily gavage for 3 consecutive days. All rats were given free access to food and water after the gavage. Urine was collected cumulatively for 24 hours on the third day after treatment began.

[2] = system: bFGF; test: Western blot of HUVEC cell lysates for bFGF expression; type: cell-based, human; conditions: 24 hrs, concentrations up to about 40 μg/ml
Procedure: (§1) The HUVEC assay used human umbilical vein endothelial cells purchased from the American Type Culture Collection (ATCC # CRL-1730, Manassas, Va.). Human umbilical vein endothelial cells (HUVEC) were grown in M199 media containing 20% fetal bovine serum, 30 μg/ml endothelial cell growth supplements, 4 mM L-glutamin, 100 U/ml penicillin, and 100 μg/ml streptomycin. Cells were incubated at 37° C. in a humidified atmosphere of 5% CO2. […] Cells were then lysed with lysis buffer containing 20 mM MOPS, 2 mM EGTA, 5 mM EDTA, 30 mM NaF, 40 mM (3-glycerophosphate, 20 mM sodium pyruvate, 0.5% Triton X-100, and 1 mM sodium orthovanadate with protease inhibitor cocktail (Sigma), and the cell lysates were subjected to protein analysis and western blotting analysis to assess for VEGF (vascular endothelial growth factor), FGF or bFGF (basic fibroblast growth factor), and FLK-1 (a VEGFR2 receptor protein) using the relevant antibodies of VEFG (R&D System), bFGF (Upstate Biotechnology); FLK-1 (Santa Cruz Biotechnology). (See Ma, J. et al., “PTEN regulate angiogenesis through PI3k/AktNEGF signaling pathway in human pancreatic cancer cells,” Mol. Cell Biochem., vol. 331, pp. 161-171 (2009); and Sukhthanjar, M., et al., “A green tea component suppresses posttranslational expression of basic fibroblast growth factor in colorectal cancer. Gastroenterology,” vol. 134, pp. 1972-1980 (2008)). β-Actin was used as a quality control of the assays.

[3] = system: VEGF; test: Western blot of HUVEC cell lysates for VEGF expression; type: cell-based, human; conditions: 24 hrs, concentrations up to about 40 μg/ml
Procedure: as §1

[4] = system: FLK-1 (a VEGFR2 receptor protein); test: Western blot of HUVEC cell lysates for FLK-1 expression; type: cell-based, human; conditions: 24 hrs, concentrations up to about 40 μg/ml
Procedure: The HUVEC assay used human umbilical vein endothelial cells purchased from the American Type Culture Collection (ATCC # CRL-1730, Manassas, Va.). Human umbilical vein endothelial cells (HUVEC) were grown in M199 media containing 20% fetal bovine serum, 30 μg/ml endothelial cell growth supplements, 4 mM L-glutamin, 100 U/ml penicillin, and 100 μg/ml streptomycin. Cells were incubated at 37° C. in a humidified atmosphere of 5% CO2. […] Cells were then lysed with lysis buffer containing 20 mM MOPS, 2 mM EGTA, 5 mM EDTA, 30 mM NaF, 40 mM (3-glycerophosphate, 20 mM sodium pyruvate, 0.5% Triton X-100, and 1 mM sodium orthovanadate with protease inhibitor cocktail (Sigma), and the cell lysates were subjected to protein analysis and western blotting analysis to assess for VEGF (vascular endothelial growth factor), FGF or bFGF (basic fibroblast growth factor), and FLK-1 (a VEGFR2 receptor protein) using the relevant antibodies of VEFG (R&D System), bFGF (Upstate Biotechnology); FLK-1 (Santa Cruz Biotechnology). (See Ma, J. et al., “PTEN regulate angiogenesis through PI3k/AktNEGF signaling pathway in human pancreatic cancer cells,” Mol. Cell Biochem., vol. 331, pp. 161-171 (2009); and Sukhthanjar, M., et al., “A green tea component suppresses posttranslational expression of basic fibroblast growth factor in colorectal cancer. Gastroenterology,” vol. […]

[5] = rats, 24 hr urine after oral RUS 1.0 g/kg of body weight

Row | Structure (SMILES) | Oral bioavailability / absorption [1] | Expression of bFGF [2] | Expression of VEGF [3] | Unmetabolized compound in the urine [1, 5] [µg] | Unmetabolized compound in urine as % of amount orally administered [1, 5] | Expression of FLK-1 [4]
1 | O=c1oc2c(O)c(O)cc3c(=O)oc4c(O)c(O)cc1c4c23 [ellagic acid] | orally bioavailable | did not suppress the expression of bFGF | inhibited the expression of VEGF in a concentration-dependent manner | – | – | –
2 | O=C(O)c1cc(O)c(O)c(O)c1 [gallic acid] | – | did not suppress the expression of bFGF | inhibited the expression of VEGF in a concentration-dependent manner | 91.7 | about 4.5% | slightly reduced the expression of FLK-1
3 | C=C1C[C@@]23CC[C@H]4[C@@](C)(CCC[C@@]4(C)C(=O)O[C@@H]4O[C@H](CO)[C@@H](O)[C@H](O)[C@H]4O)[C@@H]2CC[C@]1(O[C@@H]1O[C@H](CO)[C@@H](O)[C@H](O)[C@H]1O)C3 [rubusoside] | orally bioavailable | did not inhibit the expression of either bFGF or VEGF | did not inhibit the expression of either bFGF or VEGF | – | – | reduced the expression of FLK-1
